This is an account of results in patent publication US6951833B2, “Anti-microbial compositions” (priority 2002, dated 2005).

One series in a line: LD50 in a mouse. Conditions: in vivo, read-out: dosage reaching the LD50 limit. The source says:
The upper limit of the amount of the composition of the present invention will depend upon how the extract is made and may be determined by the levels at which toxicity or irritation becomes an issue. Thus, for surface cleansers, very high concentrations can be employed, whereas for skin cleansers, oral care or other products used for direct contact with humans or animals, lower concentrations will be desirable to avoid irritation or toxicity issues. […] Use of the term, “safe amount” herein refers to concentrations which are sufficiently below the above-mentioned amounts to avoid toxic effects in humans or animals.

The test system of series [1] is a variety of common bacteria. In words: bactericidal amounts for common bacteria. The class given is cell-based. From the text:
The composition of the present invention is preferably used in amounts that deliver at least about 2 ppm of anemonin, protoanemonin, diterpenoid alkaloids, or combinations thereof, more preferably, at least about 5 ppm of anemonin, protoanemonin, diterpenoid alkaloids, or combinations thereof, and most preferably at least about 15 ppm of anemonin, protoanemonin, diterpenoid alkaloids, or combinations thereof.

What is called LD50 is the dose expected to kill half of the subjects tested. With `O=C1C=CC2(CCC23C=CC(=O)O3)O1` (stereo not drawn) [anemonin], the LD50 in the series “LD50 in a mouse” is 150 mg/kg.

Take `C=C1C=CC(=O)O1` [protoanemonin]: the LD50 in “LD50 in a mouse” was 190 mg/kg. Moreover, in series [1], the “amount that is generally bactericidal” value was 25-200 ppm.
